Paper PMC11098088, “A distinct, high-affinity, alkaline phosphatase facilitates occupation of P-depleted environments by marine picocyanobacteria” (Proceedings of the National Academy of Sciences of the …, 2024)

T1: Psip1 (Prochlorococcus marinus, UniProt Q7V066)
T1 construct: gene PMM1416; predicted signal peptide removed; codon-optimized; pET-23a(+), C-terminal His-tag; E. coli BL21(DE3); reconstituted with Fe and Ca
T1 sequence (Q7V066 24-694): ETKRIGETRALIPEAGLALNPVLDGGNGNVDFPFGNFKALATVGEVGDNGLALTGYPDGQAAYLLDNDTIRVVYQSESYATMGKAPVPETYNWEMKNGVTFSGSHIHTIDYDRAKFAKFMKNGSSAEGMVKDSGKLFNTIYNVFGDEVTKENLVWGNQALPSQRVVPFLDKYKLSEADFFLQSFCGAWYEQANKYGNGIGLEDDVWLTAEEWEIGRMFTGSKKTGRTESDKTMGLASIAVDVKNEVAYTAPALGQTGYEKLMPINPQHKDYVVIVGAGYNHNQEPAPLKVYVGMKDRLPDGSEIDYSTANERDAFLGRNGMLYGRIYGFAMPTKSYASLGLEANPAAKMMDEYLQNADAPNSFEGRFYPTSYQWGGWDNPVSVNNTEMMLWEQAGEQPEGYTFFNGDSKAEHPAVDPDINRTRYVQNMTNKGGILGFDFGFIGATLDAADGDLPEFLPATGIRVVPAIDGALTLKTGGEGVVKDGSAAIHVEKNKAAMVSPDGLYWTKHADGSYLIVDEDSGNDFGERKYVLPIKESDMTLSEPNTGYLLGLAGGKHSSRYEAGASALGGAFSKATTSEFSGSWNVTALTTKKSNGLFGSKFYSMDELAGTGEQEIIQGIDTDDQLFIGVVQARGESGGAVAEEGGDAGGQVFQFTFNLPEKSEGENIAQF

B1: Psip1 (Prochlorococcus marinus subsp. pastoris str. CCMP1986) (protein)
chain: T1 sequence (Q7V066 24-694)
notes: predicted signal peptide removed; codon-optimized; pET-23a(+), C-terminal His-tag; E. coli BL21(DE3); reconstituted with Fe and Ca

Assays:
[1] = target: T1, Psip1; test: inhibition of MUF release from MUF-P; type: biochemical; settings: competing with MUF-P; estimated Ki; Fe(III) and Ca2+; Pi release by phosphomolybdate assay
Excerpt: inhibition of MUF release from […] on Psip1 | natural organic P compounds: glycerol-1-phosphate (G1P) | glycerol-3-phosphate (G3P) | phosphocholine (PC) | phosphorylethanolamine (PE) | adenosine monophosphate (AMP) | glucosamine-6-phosphate (Ga6P) by measuring the inhibition of MUF release from […]

[2] = substrate: Cc1cc(=O)oc2cc(OP(=O)(O)Oc3ccc4c(C)cc(=O)oc4c3)ccc12; test: purified protein; settings: pH 8.8, Fe(III) and Ca2+, 30 °C, phosphodiesterase activity
[3] = substrate: O=[N+]([O-])c1ccc(OP(=O)(O)O)cc1; test: purified protein; type: biochemical, Prochlorococcus marinus; settings: pH 9.8, Fe(III) and Ca2+, 30 °C

| Molecule | Ki [1] | Km [2] | Km [3] |
| --- | --- | --- | --- |
| Nc1ncnc2c1ncn2[C@@H]1O[C@H](COP(=O)(O)O)[C@@H](O)[C@H]1O [adenosine monophosphate] | 1.52 ± 0.22 µM |  |  |
| N[C@H]1C(O)O[C@H](COP(=O)(O)O)[C@@H](O)[C@@H]1O (some centres unmarked) [glucosamine-6-phosphate] | 0.60 ± 0.11 µM |  |  |
| O=P(O)(O)OCC(O)CO (centres unmarked) [glycerol-1-phosphate] | 1.20 ± 0.20 µM |  |  |
| O=P(O)(O)OC[C@H](O)CO [glycerol-3-phosphate] | 0.79 ± 0.15 µM |  |  |
| C[N+](C)(C)CCOP(=O)([O-])O [phosphocholine] | 2.20 ± 0.37 µM |  |  |
| NCCOP(=O)(O)O [phosphorylethanolamine] | 4.46 ± 1.08 µM |  |  |
| B1 |  | 46.1 ± 5.72 µM | 2.5 ± 1.18 µM |
